For one data set, the system named is LNCaP. Description: Anticancer activity against human LNCAP cells assessed as cell viability measured after 72 hrs by MTT assay (reference value: 100 +/- 5.0 %). It is filed as functional. More on the design: concentration or dose not given beside the values. In general terms: Formazan colour is commonly taken as a measure of viable cells.
The subject of data set [1] is PC-3. Description: Anticancer activity against human PC3 cells assessed as cell viability measured after 72 hrs by MTT assay (reference value: 100 +/- 18.8 %). It is filed as functional. Details: concentration or dose not given beside the values.
The test system of data set [2] is A-431. Description: Anticancer activity against human A431 cells assessed as cell viability measured after 72 hrs by MTT assay (reference value: 100 +/- 11.7 %). It is filed as functional. More on the design: concentration or dose not given beside the values.
The test system of a further data set is HeLa. Description: Anticancer activity against human HeLa cells assessed as cell viability measured after 72 hrs by MTT assay (reference value: 100 +/- 11.5 %). It is filed as functional. More on the design: concentration or dose not given beside the values.
Data set [3] concerns HepG2. The experiment in a line: Anticancer activity against human HepG2 cells assessed as cell viability measured after 72 hrs by MTT assay (reference value: 100 +/- 6.5 %). More on the design: concentration or dose not given beside the values. It counts as functional.
The subject of data set [4] is MDA-MB-231. Description: Anticancer activity against human MDA-MB-231 cells assessed as cell viability measured after 72 hrs by MTT assay (reference value: 100 +/- 20.0 %). It counts as functional. More on the design: concentration or dose not given beside the values.
The subject of another data set is A549. The experiment in a line: Anticancer activity against human A549 cells assessed as cell viability measured after 72 hrs by MTT assay (reference value: 100 +/- 9.6 %). It counts as functional. Details: concentration or dose not given beside the values.
The test system of data set [5] is PC-3. Description: Anticancer activity against human PC3 cells assessed as reduction in cell viability measured after 72 hrs by MTT assay. It counts as functional, cell-based. The following applies: PC-3, 72 h.
For data set [6], the system named is A-431. Description: Anticancer activity against human A431 cells assessed as reduction in cell viability measured after 72 hrs by MTT assay. It is filed as functional, cell-based. Particulars: A-431, 72 h.
Data set [7] has as its system HepG2. The experiment in a line: Anticancer activity against human HepG2 cells assessed as reduction in cell viability measured after 72 hrs by MTT assay. It is filed as functional, cell-based. The following applies: HepG2, 72 h.
The test system of data set [8] is MDA-MB-231. Description: Anticancer activity against human MDA-MB-231 cells assessed as reduction in cell viability measured after 72 hrs by MTT assay. It counts as functional, cell-based. Particulars: MDA-MB-231, 72 h.
Data set [9] can be described thus: Elimination half-life in Sprague-Dawley rat at 10 mg/kg administered as iv bolus dose by EC-HPLC analysis. The following applies: in vivo, read-out: beta t1/2. It counts as ADME, organism-based.
Data set [10] can be described thus: Solubility of compound in water. Particulars: buffer. It is filed as physicochemical.

Structures are written as SMILES. Where only a bound is given, the exact number is not on record here.

By IC50 is commonly meant the midpoint of a concentration-inhibition curve.

In the case of `COC(=O)CS[C@@H]1O[C@@H]2O[C@@]3(C)CC[C@H]4[C@H](C)CC[C@@H]([C@H]1C)[C@@]24OO3`, the Activity in the data set with LNCaP came out at 60%; in the data set with PC-3 [1], 32%; with A-431 [2], 75%; with HeLa it was 79%; with HepG2 [3], 80%; in the data set with MDA-MB-231 [4] it was 98%. Besides, in the data set with A549, the Activity was found to be 91%.
Consider `CCCCS[C@H]1O[C@@H]2O[C@@]3(C)CC[C@H]4[C@H](C)CC[C@@H]([C@H]1C)[C@@]24OO3`, for which the Activity in the data set on LNCaP stood at 47%; in the data set with PC-3 [1], 33%; in the data set on A-431 [2], 47%; with HeLa, 49%; in the data set on HepG2 [3], 52%; in the data set on MDA-MB-231 [4], 71%. The Activity in the data set on A549 came to 79%.
For the compound `C[C@H]1[C@@H](Sc2ccc(Cl)cc2)O[C@@H]2O[C@@]3(C)CC[C@H]4[C@H](C)CC[C@@H]1[C@@]24OO3`, the Activity is reported as 37% with LNCaP; 99% with PC-3 [1]; 36% in the data set with A-431 [2]; 41% in the data set with HeLa; 36% in the data set with HepG2 [3]; 70% in the data set with MDA-MB-231 [4]. The Activity with A549 is reported as 52%.
As to `CCCCS[C@@H]1O[C@@H]2O[C@@]3(C)CC[C@H]4[C@H](C)CC[C@@H]([C@H]1C)[C@@]24OO3`, the Activity was 90% with LNCaP; 92% in the data set with PC-3 [1]; 86% with A-431 [2]; 82% with HeLa; 92% with HepG2 [3]; 90% in the data set with MDA-MB-231 [4]. Also, the Activity in the data set with A549 is reported as 96%.
With `C[C@H]1[C@@H](Sc2ccc(C(=O)O)cc2)O[C@@H]2O[C@@]3(C)CC[C@H]4[C@H](C)CC[C@@H]1[C@@]24OO3`, the Activity with LNCaP turned out to be 41%; in the data set with PC-3 [1], 32%; in the data set on A-431 [2], 31%; in the data set on HeLa, 55%; in the data set with HepG2 [3] it was 45%; in the data set with MDA-MB-231 [4], 64%. Moreover, in the data set on A549, the Activity worked out at 76%.
For the compound `CCCCCCS[C@@H]1O[C@@H]2O[C@@]3(C)CC[C@H]4[C@H](C)CC[C@@H]([C@H]1C)[C@@]24OO3`, the Activity is 36% in the data set on LNCaP; 90% in the data set with PC-3 [1]; 35% with A-431 [2]; 44% in the data set with HeLa; 35% in the data set on HepG2 [3]; 72% in the data set with MDA-MB-231 [4]. The Activity with A549 was determined as 70%.
For the compound `C[C@H]1[C@@H](Sc2ccc3ccccc3n2)O[C@@H]2O[C@@]3(C)CC[C@H]4[C@H](C)CC[C@@H]1[C@@]24OO3`, the Activity with LNCaP came to 41%; in the data set with PC-3 [1] it was 39%; with A-431 [2], 44%; in the data set on HeLa, 63%; with HepG2 [3], 72%; in the data set on MDA-MB-231 [4] it was 78%. In the data set on A549, the Activity is recorded as 87%.
Turning to `C[C@H]1[C@@H](Sc2cccc(C(=O)O)c2)O[C@@H]2O[C@@]3(C)CC[C@H]4[C@H](C)CC[C@@H]1[C@@]24OO3`, the Activity was 43% in the data set on LNCaP; 41% with PC-3 [1]; 90% in the data set on A-431 [2]; 58% in the data set with HeLa; 60% in the data set with HepG2 [3]; 97% in the data set on MDA-MB-231 [4]. The Activity in the data set on A549 was found to be 89%.
`C[C@H]1[C@H](Sc2ccc(Cl)cc2)O[C@@H]2O[C@@]3(C)CC[C@H]4[C@H](C)CC[C@@H]1[C@@]24OO3`: the Activity in the data set on LNCaP was 37%; with PC-3 [1] it was 70%; with A-431 [2] it was 42%; with HeLa, 48%; in the data set on HepG2 [3] it was 42%; in the data set with MDA-MB-231 [4], 97%. Besides, the Activity with A549 turned out to be 55%.
`C[C@H]1[C@H](Sc2ccc(C(=O)O)cc2)O[C@@H]2O[C@@]3(C)CC[C@H]4[C@H](C)CC[C@@H]1[C@@]24OO3`: the Activity with LNCaP is 47%; with PC-3 [1], 84%; in the data set with A-431 [2], 58%; in the data set on HeLa it was 60%; in the data set with HepG2 [3], 64%; in the data set with MDA-MB-231 [4], 95%. Moreover, in the data set with A549, the Activity was found to be 79%.
Consider `CCCCCCS[C@H]1O[C@@H]2O[C@@]3(C)CC[C@H]4[C@H](C)CC[C@@H]([C@H]1C)[C@@]24OO3`, for which the Activity in the data set with LNCaP was 46%; in the data set on PC-3 [1] it was 39%; in the data set with A-431 [2], 45%; with HeLa, 49%; in the data set on HepG2 [3] it was 41%; with MDA-MB-231 [4], 39%. Moreover, the Activity with A549 stood at 55%. The IC50 in the data set with PC-3 [5] amounted to 5.8 µM; in the data set with A-431 [6] it was 3.99 µM; in the data set with HepG2 [7], 10.7 µM; with MDA-MB-231 [8], 3.94 µM.
Take `C[C@H]1[C@H](Sc2nnnn2C)O[C@@H]2O[C@@]3(C)CC[C@H]4[C@H](C)CC[C@@H]1[C@@]24OO3`: the Activity with LNCaP is listed as 78%; in the data set on PC-3 [1] it was 47%; in the data set on A-431 [2], 87%; with HeLa, 95%; with HepG2 [3] it was 95%; in the data set with MDA-MB-231 [4], 75%. Further, the Activity in the data set on A549 is given as 89%.
For the compound `C[C@H]1[C@@H](O)O[C@@H]2O[C@@]3(C)CC[C@H]4[C@H](C)CC[C@@H]1[C@@]24OO3` [ARTENIMOL], the half-life in data set [9] is under 1 h. The solubility result in data set [10] was “Soluble”.
Consider `C[C@H]1[C@H](Sc2ccc3ccccc3n2)O[C@@H]2O[C@@]3(C)CC[C@H]4[C@H](C)CC[C@@H]1[C@@]24OO3`, for which the Activity in the data set with LNCaP is on record as 77%; in the data set on PC-3 [1], 33%; in the data set with A-431 [2] it was 93%; in the data set on HeLa it was 87%; in the data set on HepG2 [3] it was 96%; in the data set with MDA-MB-231 [4], 90%. Further, the Activity in the data set with A549 is 100%.
Take `C[C@H]1[C@H](Sc2ccc([N+](=O)[O-])cc2)O[C@@H]2O[C@@]3(C)CC[C@H]4[C@H](C)CC[C@@H]1[C@@]24OO3`: the Activity in the data set on LNCaP was 46%; in the data set on PC-3 [1], 50%; with A-431 [2] it was 44%; in the data set on HeLa, 50%; in the data set on HepG2 [3], 56%; with MDA-MB-231 [4], 98%. For the same compound, the Activity in the data set on A549 is listed as 70%.
For `C[C@H]1[C@@H](Sc2nnnn2C)O[C@@H]2O[C@@]3(C)CC[C@H]4[C@H](C)CC[C@@H]1[C@@]24OO3`, the Activity stood at 97% with LNCaP; 28% in the data set on PC-3 [1]; 97% in the data set with A-431 [2]; 93% with HeLa; 93% in the data set with HepG2 [3]; 86% in the data set on MDA-MB-231 [4]. Besides, the Activity in the data set with A549 worked out at 100%.
For `COC(=O)Cc1ccc(SC2O[C@@H]3O[C@@]4(C)CC[C@H]5[C@H](C)CC[C@@H]([C@H]2C)[C@@]35OO4)cc1` (stereo not given in full), the Activity with LNCaP is recorded as 31%; with PC-3 [1], 31%; in the data set on A-431 [2], 52%; in the data set on HeLa, 43%; in the data set with HepG2 [3] it was 67%; with MDA-MB-231 [4] it was 96%. The Activity in the data set on A549 is listed as 74%.
As to `COC(=O)CS[C@H]1O[C@@H]2O[C@@]3(C)CC[C@H]4[C@H](C)CC[C@@H]([C@H]1C)[C@@]24OO3`, the Activity in the data set on LNCaP was determined as 71%; with PC-3 [1], 44%; with A-431 [2] it was 77%; in the data set with HeLa it was 80%; in the data set on HepG2 [3], 94%; in the data set on MDA-MB-231 [4] it was 99%. Further, the Activity with A549 came to 97%.

(Values after ChEMBL document CHEMBL4359825, “Synthesis of novel S-linked dihydroartemisinin derivatives and evaluation of their anticancer activity” (Eur J Med Chem, 2019).)
